Values quoted from earlier work, collected in paper PMC12866986 (European journal of medicinal chemistry, 2026).

Tests used:
Caco-2 cells = details: cited from earlier work
Src = details: at 10 μM; cited from earlier work
Pyk2 = details: at 10 μM; cited from earlier work
gut mucosal wound = details: cited from earlier work

In the case of `CN(C)C(CNC(=O)Nc1cc(C(F)(F)F)ccc1N1CCOCC1)c1ccncc1` (stereo not shown) [Compound 5a, 1-(2-(dimethylamino)-2-(pyridin-4-yl)ethyl)-3-(2-morpholino-5-(trifluoromethyl)phenyl)urea], the “epithelial sheet migration in vitro” value (Caco-2 cells) is given as “induces epithelial sheet migration”, the Src activation (Src) is given as “does not activate” and the Pyk2 activation (Pyk2) is given as “does not activate”. The “gut mucosal wound healing in vivo” value (gut mucosal wound) was “stimulates gut mucosal wound healing”.
